Series [1] deals with Mus musculus. Briefly: Induction of catalepsy in Mus musculus albino (mouse) at 25 mg/kg, ip measured after 20 min for 5 min. Type of series: organism-based. Further details: dose 25 mg/kg, route intraperitoneal. Particulars: in vivo.
The test system of series [2] is Mus musculus. The experiment in a line: Atypical antipsychotic activity in Mus musculus albino (mouse) assessed as inhibition of 5HTP-induced head twitching at 25 mg/kg, ip administered 30 min prior to 5-HTP-challenge measured after 20 min for 5 min.
The test system of series [3] is Mus musculus. Briefly: Atypical antipsychotic activity in Mus musculus albino (mouse) assessed as inhibition of apomorphine-induced climbing behaviour at 60 mg/kg, ip administered 30 min prior to apomorphine-challenge measured after 5 min for 30 min relative to control. Type of series: functional. As to conditions: route intraperitoneal.
Series [4] has as its system Mus musculus. The experiment in a line: Induction of catalepsy in ip dosed Mus musculus albino (mouse) measured after 20 min for 5 min. Type of series: organism-based. As to conditions: in vivo.
The species entered for series [5] is Mus musculus. Briefly: animal or person. As to conditions: albino, ip, read-out: INH.
Description: Atypical antipsychotic activity in Mus musculus albino (mouse) assessed as inhibition of apomorphine-induced climbing behaviour at 25 mg/kg, ip administered 30 min prior to apomorphine-challenge measured after 5 min for 30 min relative to control

The values below come from ChEMBL document CHEMBL3046137, “Benzo[d][1,3] oxathiols: synthesis and biological evaluation as potential atypical antipsychotic agents” (Med Chem Res, 2011).

Each structure is given as a SMILES string.

As to `O=c1oc2cc(OCCCOc3ccc4ccccc4c3)ccc2s1`, the Activity is 41.22% with Mus musculus [1] and “Dose-dependent effect” in the series with Mus musculus [4]. Besides, the inhibition in vivo at 25 mg/kg in the series with Mus musculus [2] turned out to be 61.1%. Moreover, in the series on Mus musculus [3], the inhibition in vivo at 60 mg/kg stood at 47%.
In the same order, the values of `O=c1oc2cc(OCCCN3CCOCC3)ccc2s1` are 39.27%, “Dose-dependent effect”, 71.5% and 69.6%.
In the same order, the values of `O=c1oc2cc(OCCCOc3ccc(Cl)cc3)ccc2s1` are 33.71%, “Dose-dependent effect”, 77.9% and 49.3%.
In the same order, the values of `O=c1oc2cc(OCCCOc3ccc([N+](=O)[O-])cc3)ccc2s1` are 43.92%, “Dose-dependent effect”, 80% and 67.3%.
Consider `CCN(CC)CCCOc1ccc2sc(=O)oc2c1`, for which the Activity is 37.11% with Mus musculus [1] and “Dose-dependent effect” in the series on Mus musculus [4]. In the series on Mus musculus [2], the inhibition in vivo at 25 mg/kg was 63.4%. Further, the inhibition in vivo at 60 mg/kg with Mus musculus [3] was determined as 53.3%.
As for `O=c1oc2cc(OCCCn3cnnc3)ccc2s1`, the Activity in the series on Mus musculus [1] is recorded as 36.98%; in the series on Mus musculus [4], “Dose-dependent effect”. The inhibition in vivo at 25 mg/kg with Mus musculus [2] was found to be 79.3%. Further, the inhibition in vivo at 60 mg/kg in the series on Mus musculus [3] is 70%.
Regarding `O=C1CCc2ccc(OCCCCN3CCN(c4cccc(Cl)c4Cl)CC3)cc2N1` [ARIPIPRAZOLE], the Activity in the series on Mus musculus [1] amounted to 29.34%. The inhibition in vivo at 25 mg/kg is 80.2% in the series on Mus musculus [2] and 62.4% in the series listed under Mus musculus [5].
For `O=c1oc2cc(OCCCOc3cccc4ccccc34)ccc2s1`, the Activity in the series on Mus musculus [1] is 49.21%; with Mus musculus [4], “Dose-dependent effect”. Further, the inhibition in vivo at 25 mg/kg in the series with Mus musculus [2] was determined as 58.3%. In the series on Mus musculus [3], the inhibition in vivo at 60 mg/kg amounted to 39%.
As to `O=c1oc2cc(OCCCN3CCCCC3)ccc2s1`, the Activity in the series on Mus musculus [1] was 41%; with Mus musculus [4], “Dose-dependent effect”. In the series on Mus musculus [2], the inhibition in vivo at 25 mg/kg turned out to be 67.3%. In addition, the inhibition in vivo at 60 mg/kg in the series with Mus musculus [3] turned out to be 51.2%.
In the same order, the values of `Cc1ccc(OCCCOc2ccc3sc(=O)oc3c2)cc1` are 39.48%, “Dose-dependent effect”, 77.3% and 52.4%.
In the same order, the values of `O=c1oc2cc(OCCCN3CCNCC3)ccc2s1` are 42.39%, “Dose-dependent effect”, 68.2% and 62.3%.
